Results: patent USRE37781E1, “Substituted cyclic carbonyls and derivatives thereof useful as retroviral protease inhibitors” (DuPont Pharmaceuticals Company, priority 1991, dated 2002)
In brackets after ≈: the same amount, converted by molar mass. Like-named read-outs stand apart in the source and are kept apart here.

Tests used:
HIV-1 (RF) in MT-2 cells = assay: microbe, parasite or virus in culture; assay type: cell-based
Outline: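 HIV-1 laboratory strains (RF, MN, IIIB) grown in H9 cells in RPMI 1640 with 5% FCS; infections in MT-2 cells. Viral RNA quantified by hybridization with biotinylated gag/pol capture probes on streptavidin plates and alkaline phosphatase-conjugated reporter probes; BH10 gag-pol in vitro transcripts serve as RNA standards.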

[1] = biological target: single-chain tethered dimer of HIV protease (Human immunodeficiency virus 1, UniProt P04585); assay: biochemical; assay type: biochemical; design: fused on or other part: A second copy of the same protease unit is joined to the first by a short peptide tether, giving one polypeptide
[2] = Human immunodeficiency virus 1, MT2, 48 h, Table 2d, class symbols, read-out: IC90
[3] = read-out: HPLC K1; Table 2d; class symbols
[4] = Table 2d; class symbols; read-out: HPLC K1
[5] = Human immunodeficiency virus 1, MT2, 48 h, Table 2d, HIV RNA assay, read-out: IC90
[6] = read-out: HPLC K1; Table 2d; HIV protease inhibition, HPLC method
[7] = Table 2d; HIV protease inhibition, HPLC method; read-out: HPLC K1

O=C1NC(Cc2ccccc2)C(O)C(O)C(Cc2ccccc2)N1CCCCCCCO (stereo not shown) [Example 12o]
IC90 (HIV-1 (RF) in MT-2 cells; [2]): 10 to 100 µg/mL (≈ 22.7 to 227 µM) | Ki [1, 3]: 10 to 1000 nM

C=CCCCCN1C(=O)N(CCCCC=C)C(Cc2ccccc2)C(O)C(O)C1Cc1ccccc1 (stereo not shown) [Example 13D]
IC90 (HIV-1 (RF) in MT-2 cells; [2]): < 10 µg/mL | Ki [1, 3]: < 10 nM

O=C1N(CCCCC2CO2)C(Cc2ccccc2)C(O)C(O)C(Cc2ccccc2)N1CCCCC1CO1 (stereo not shown) [Example 13E]
IC90 (HIV-1 (RF) in MT-2 cells; [2]): < 10 µg/mL | Ki [1, 3]: 10 to 1000 nM

O=C1N(CCCCC(Br)CBr)C(Cc2ccccc2)C(O)C(O)C(Cc2ccccc2)N1CCCCC(Br)CBr (stereo not shown) [Example 13F]
IC90 (HIV-1 (RF) in MT-2 cells; [2]): > 100 µg/mL | Ki [1, 3]: 10 to 1000 nM

O=C1N(CCCCC(O)CBr)C(Cc2ccccc2)C(O)C(O)C(Cc2ccccc2)N1CCCCC(O)CBr (stereo not shown) [Example 13G]
IC90 (HIV-1 (RF) in MT-2 cells; [2]): < 10 µg/mL | Ki [1, 3]: < 10 nM

O=C1N(CCCCCO)C(Cc2ccccc2)C(O)C(O)C(Cc2ccccc2)N1CCCCCO (stereo not shown) [Example 13H]
IC90 (HIV-1 (RF) in MT-2 cells; [2]): < 10 µg/mL | Ki [1, 3]: < 10 nM

O=C1N(CCCCC(O)CO)C(Cc2ccccc2)C(O)C(O)C(Cc2ccccc2)N1CCCCC(O)CO (stereo not shown) [Example 13I]
IC90 (HIV-1 (RF) in MT-2 cells; [2]): > 100 µg/mL | Ki [1, 3]: < 10 nM

O=C1N(CC2CC2)C(Cc2ccccc2)C(O)C(O)C(Cc2ccccc2)N1CC1CC1 (stereo not shown) [Example 13J]
IC90 (HIV-1 (RF) in MT-2 cells; Table 2d, class symbols): +++ (+++=<10 μg/mL) | Ki [1, 4]: < 10 nM

C=CCN1C(=O)N(CC=C)C(Cc2ccccc2)C(O)C(O)C1Cc1ccccc1 (stereo not shown) [Example 13K]
IC90 (HIV-1 (RF) in MT-2 cells; Table 2d, class symbols): +++ (+++=<10 μg/mL) | Ki [1, 4]: < 10 nM

O=C1N(Cc2ccccc2)C(Cc2ccccc2)C(O)C(O)C(Cc2ccccc2)N1Cc1ccccc1 (stereo not shown) [Example 13L]
IC90 (HIV-1 (RF) in MT-2 cells; [2]): < 10 µg/mL | Ki [1, 3]: < 10 nM

O=C1N(Cc2ccc(CO)cc2)C(Cc2ccccc2)C(O)C(O)C(Cc2ccccc2)N1Cc1ccc(CO)cc1 (stereo not shown) [Example 13M]
IC90 (HIV-1 (RF) in MT-2 cells; [2]): < 10 µg/mL | Ki [1, 3]: < 10 nM

C=CCN1C(=O)N(CC=C)[C@H](Cc2ccccc2)[C@@H](O)[C@H](O)[C@H]1Cc1ccccc1 [Example 13N]
IC90 (HIV-1 (RF) in MT-2 cells; Human immunodeficiency virus 1, MT2, 48 h): 10 to 100 µg/mL (≈ 24.6 to 246 µM) | Ki [1, 3]: > 1000 nM

O=C1NC(Cc2ccccc2)C(O)C(O)C(Cc2ccccc2)N1 (stereo not shown) [Example 13P]
IC90 (HIV-1 (RF) in MT-2 cells; Table 2d, class symbols): + (+=>100 μg/mL) | Ki [1, 4]: > 1000 nM

CCCCN1C(=O)N(CCCC)C(Cc2ccccc2)C(O)C(O)C1Cc1ccccc1 (stereo not shown) [Example 13R]
IC90 (HIV-1 (RF) in MT-2 cells; [2]): < 10 µg/mL | Ki [1, 3]: 10 to 1000 nM

O=C1N(Cc2ccc(CO)cc2)C(Cc2ccccc2)C(O)C(O)C(Cc2ccccc2)N1Cc1ccc(CO)cc1 (stereo not shown) [Example 13S]
IC90 (HIV-1 (RF) in MT-2 cells; Table 2d, class symbols): ++ (++=10 to 100 μg/mL) | Ki [1, 3]: 10 to 1000 nM

O=C1N(Cc2ccc3c(c2)CCNC3)C(Cc2ccccc2)C(O)C(O)C(Cc2ccccc2)N1Cc1ccc2c(c1)CCNC2 (stereo not shown) [Example 13T]
IC90 (HIV-1 (RF) in MT-2 cells; Table 2d, class symbols): + (+=>100 μg/mL) | Ki [1, 4]: 10 to 1000 nM

O=C1N(Cc2nccs2)C(Cc2ccccc2)C(O)C(O)C(Cc2ccccc2)N1Cc1nccs1 (stereo not shown) [Example 13V]
IC90 (HIV-1 (RF) in MT-2 cells; Table 2d, class symbols): ++ (++=10 to 100 μg/mL) | Ki [1, 4]: 10 to 1000 nM

CC(C)(C)OC(=O)c1ccc(CN2C(=O)N(Cc3ccc(C(=O)OC(C)(C)C)o3)C(Cc3ccccc3)C(O)C(O)C2Cc2ccccc2)o1 (stereo not shown) [Example 13W]
IC90 (HIV-1 (RF) in MT-2 cells; Table 2d, class symbols): +++ (+++=<10 μg/mL) | Ki [1, 4]: > 1000 nM

O=C1N(Cc2ccc(CO)o2)C(Cc2ccccc2)C(O)C(O)C(Cc2ccccc2)N1Cc1ccc(CO)o1 (stereo not shown) [Example 13X]
IC90 (HIV-1 (RF) in MT-2 cells; [2]): > 100 µg/mL | Ki [1, 3]: 10 to 1000 nM

O=C1N(Cc2cnccc2Cl)C(Cc2ccccc2)C(O)C(O)C(Cc2ccccc2)N1Cc1cnccc1Cl (stereo not shown) [Example 13Z]
IC90 (HIV-1 (RF) in MT-2 cells; Table 2d, class symbols): +++ (+++=<10 μg/mL) | Ki [1, 4]: 10 to 1000 nM

O=C1N(CC2CC2)C(Cc2ccccc2)C(O)C(O)C(Cc2ccccc2)N1CC1CC1 (stereo not shown) [Example 13o]
IC90 (HIV-1 (RF) in MT-2 cells; Table 2d, class symbols): ++ (++=10 to 100 μg/mL) | Ki [1, 4]: > 1000 nM

O=C1N(Cc2cccnc2Cl)C(Cc2ccccc2)C(O)C(O)C(Cc2ccccc2)N1Cc1cccnc1Cl (stereo not shown) [Example 14A]
IC90 (HIV-1 (RF) in MT-2 cells; [2]): 10 to 100 µg/mL (≈ 17.3 to 173 µM) | Ki [1, 3]: 10 to 1000 nM

CC(C)(C)Sc1ncccc1CN1C(=O)N(Cc2cccnc2SC(C)(C)C)C(Cc2ccccc2)C(O)C(O)C1Cc1ccccc1 (stereo not shown) [Example 14B]
IC90 (HIV-1 (RF) in MT-2 cells; [2]): < 10 µg/mL | Ki [1, 3]: 10 to 1000 nM

O=C1N(Cc2cnccc2O)C(Cc2ccccc2)C(O)C(O)C(Cc2ccccc2)N1Cc1cnccc1O (stereo not shown) [Example 14C]
IC90 (HIV-1 (RF) in MT-2 cells; Table 2d, class symbols): + (+=>100 μg/mL) | Ki [1, 4]: 10 to 1000 nM

O=C1N(CC2CC2)C(Cc2ccccc2)C(O)C(O)C(Cc2ccccc2)N1c1ccccn1 (stereo not shown) [Example 14D]
IC90 (HIV-1 (RF) in MT-2 cells; [2]): < 10 µg/mL | Ki [1, 3]: 10 to 1000 nM

Cc1cncc(O)c1CN1C(=O)N(Cc2c(C)cncc2O)C(Cc2ccccc2)C(O)C(O)C1Cc1ccccc1 (stereo not shown) [Example 14K]
IC90 (HIV-1 (RF) in MT-2 cells; Table 2d, class symbols): + (+=>100 μg/mL) | Ki [1, 4]: 10 to 1000 nM

O=C(CCl)Nc1cccc(CN2C(=O)N(Cc3cccc(NC(=O)CCl)c3)C(Cc3ccccc3)C(O)C(O)C2Cc2ccccc2)c1 (stereo not shown) [Example 15AA]
IC90 (HIV-1 (RF) in MT-2 cells; [5]): < 10 µg/mL | Ki [1, 6]: < 10 nM

Cl.Cl.O=C(Nc1cccc(CN2C(=O)N(Cc3cccc(NC(=O)c4ccncc4)c3)C(Cc3ccccc3)C(O)C(O)C2Cc2ccccc2)c1)c1ccncc1 (stereo not shown) [Example 15AC]
IC90 (HIV-1 (RF) in MT-2 cells; Table 2d, HIV RNA assay): +++ (+++=<10 μg/mL) | Ki [1, 7]: < 10 nM

CN(C)Cc1nc(-c2cccc(CN3C(=O)N(Cc4cccc(-c5noc(CN(C)C)n5)c4)C(Cc4ccccc4)C(O)C(O)C3Cc3ccccc3)c2)no1.Cl.Cl (stereo not shown) [Example 15AO]
IC90 (HIV-1 (RF) in MT-2 cells; Table 2d, HIV RNA assay): +++ (+++=<10 μg/mL) | Ki [1, 7]: < 10 nM

N#Cc1cccc(CN2C(=O)N(Cc3ccc(O)cc3)C(Cc3ccccc3)C(O)C(O)C2Cc2ccccc2)c1 (stereo not shown) [Example 15AQ]
IC90 (HIV-1 (RF) in MT-2 cells; [5]): < 10 µg/mL | Ki [1, 6]: < 10 nM

N#Cc1cccc(CN2C(=O)N(Cc3cccnc3)C(Cc3ccccc3)C(O)C(O)C2Cc2ccccc2)c1 (stereo not shown) [Example 15AR]
IC90 (HIV-1 (RF) in MT-2 cells; [5]): < 10 µg/mL | Ki [1, 6]: < 10 nM

O=C(COCc1ccccc1)c1cccc(CN2C(=O)N(Cc3cccc(C(=O)COCc4ccccc4)c3)C(Cc3ccccc3)C(O)C(O)C2Cc2ccccc2)c1 (stereo not shown) [Example 15BI]
IC90 (HIV-1 (RF) in MT-2 cells; [5]): < 10 µg/mL | Ki [1, 6]: < 10 nM

C[Si](C)(C)CCOCn1cncc1-c1cccc(CN2C(=O)N(Cc3cccc(-c4cncn4COCC[Si](C)(C)C)c3)C(Cc3ccccc3)C(O)C(O)C2Cc2ccccc2)c1 (stereo not shown) [Example 15BJ]
IC90 (HIV-1 (RF) in MT-2 cells; [5]): < 10 µg/mL | Ki [1, 6]: < 10 nM

CN(C)S(=O)(=O)n1ccnc1-c1cccc(CN2C(=O)N(Cc3cccc(-c4nccn4S(=O)(=O)N(C)C)c3)C(Cc3ccccc3)C(O)C(O)C2Cc2ccccc2)c1 (stereo not shown) [Example 15BM]
IC90 (HIV-1 (RF) in MT-2 cells; [5]): < 10 µg/mL | Ki [1, 6]: 10 to 1000 nM

O=C1N(Cc2cccc(-c3cn[nH]c3)c2)C(Cc2ccccc2)C(O)C(O)C(Cc2ccccc2)N1Cc1cccc(-c2cn[nH]c2)c1 (stereo not shown) [Example 15BN]
IC90 (HIV-1 (RF) in MT-2 cells; [5]): < 10 µg/mL | Ki [1, 6]: < 10 nM

O=C1N(Cc2cccc(CO)c2)C(Cc2ccccc2)C(O)C(O)C(Cc2ccccc2)N1Cc1cccc(-c2cc[nH]n2)c1 (stereo not shown) [Example 15BQ]
IC90 (HIV-1 (RF) in MT-2 cells; [5]): < 10 µg/mL | Ki [1, 6]: < 10 nM

O=C(NCCN1CCOCC1)c1cccc(CN2C(=O)N(Cc3cccc(-c4cc[nH]n4)c3)C(Cc3ccccc3)C(O)C(O)C2Cc2ccccc2)c1 (stereo not shown) [Example 15BT]
IC90 (HIV-1 (RF) in MT-2 cells; [5]): < 10 µg/mL | Ki [1, 6]: < 10 nM

N#Cc1cccc(CN2C(=O)N(Cc3cccc(-c4cc[nH]n4)c3)C(Cc3ccccc3)C(O)C(O)C2Cc2ccccc2)c1 (stereo not shown) [Example 15BV]
IC90 (HIV-1 (RF) in MT-2 cells; [5]): < 10 µg/mL | Ki [1, 6]: < 10 nM

NC(=NO)c1cccc(CN2C(=O)N(Cc3cccc(-c4cc[nH]n4)c3)C(Cc3ccccc3)C(O)C(O)C2Cc2ccccc2)c1 (stereo not shown) [Example 15BW]
IC90 (HIV-1 (RF) in MT-2 cells; [5]): < 10 µg/mL | Ki [1, 6]: < 10 nM

O=C1NC(Cc2ccccc2)C(O)C(O)C(Cc2ccccc2)N1Cc1cccc(-c2cc[nH]n2)c1 (stereo not shown) [Example 15BX]
IC90 (HIV-1 (RF) in MT-2 cells; [5]): < 10 µg/mL | Ki [1, 6]: < 10 nM

O=C1N(Cc2ccc(OCc3ccccc3)cc2)C(Cc2ccccc2)C(O)C(O)C(Cc2ccccc2)N1Cc1cccc(-c2cc[nH]n2)c1 (stereo not shown) [Example 15BY]
IC90 (HIV-1 (RF) in MT-2 cells; [5]): < 10 µg/mL | Ki [1, 6]: < 10 nM
